Read-outs that look alike come from different tables or passages of the source.
What was measured:
[1] = logP determination by HPLC on reversed-phase column (C 18), EEC directive 79/831 Annex V.A8; assay type: physicochemical; conditions: for logP: Table 1; label a): acidic range
Procedure: Temperature: 43° C. (a) Mobile phases for the determination in the acidic range: 0.1% aqueous phosphoric acid, acetonitrile; linear gradient of 10% acetonitrile to 90% acetonitrile—the corresponding data in Table 1 are labelled ^a). (b) Mobile phases for the determination in the neutral range: 0.01 molar aqueous phosphate buffer solution, acetonitrile, linear gradient from 10% acetonitrile to 90% acetonitrile—the corresponding data in Table 1 are labelled ^b).

[2] = tested on: weeds; experiment: Pre-emergence test, activity against weeds; assay type: in vivo; conditions: soil sprayed 24 hours after sowing, rated after three weeks
Source text: (§1) Seeds of the test plants are sown in normal soil.
(§2) After three weeks, the degree of damage to the plants is rated in % damage in comparison to the development of the untreated control.

[3] = tested on: crop plants, such as cotton, maize, soya and wheat; experiment: Pre-emergence test, tolerance by crop plants; assay type: in vivo; conditions: rated after three weeks
Source text: as §1, §2

[4] = tested on: weeds; experiment: Post-emergence test, activity against weeds; assay type: in vivo; conditions: test plants of 5 to 15 cm sprayed, rated after three weeks
Source text: as §2

[5] = tested on: crop plants, such as maize; experiment: Post-emergence test, tolerance by crop plants; assay type: in vivo; conditions: rated after three weeks
Source text: as §2

[6] = 0.1% aqueous phosphoric acid/acetonitrile gradient, 43° C.

| SMILES | logP [1, 6] | also measured |
| --- | --- | --- |
| Cn1c(C(S)c2c(Cl)ccc(C(=O)C3C(=O)CCCC3=O)c2Cl)n[nH]c1=O (stereo not shown) |  | melting point: 187 °C |
| CCn1ncc(C(=O)c2ccc(Sc3n[nH]c(=O)n3C)cc2Cl)c1O |  | melting point: 216 °C |
| Cn1c(Sc2cc(C(F)(F)F)ccc2C(=O)C2C(=O)CCCC2=O)n[nH]c1=O [Example 1, 2-[2-[(4-methyl-5-oxo-4,5-dihydro-1H-1,2,4-triazol-3-yl)-sulphanyl]-4-trifluoromethyl-benzoyl]-1,3-cyclohexanedione] |  | chromatographic logP ([1]; reversed-phase HPLC column (C 18), Example 1, mobile phase range not labelled, read-out: log P): 2; activity against weeds (degree of damage) [2]: strong activity; tolerance by crop plants [3]: tolerated well; activity against weeds (degree of damage) [4]: strong activity; tolerance by crop plants [5]: tolerated well |
| Cn1nc(Sc2ccc(C(=O)C3C(=O)CCCC3=O)c(Cl)c2)n(C)c1=O [Example 6] | logP = 2.08^a) |  |
| Cc1nn(C)c(O)c1C(=O)c1ccc(Sc2nn(C)c(=O)n2C)cc1Cl [Example 9] | logP = 1.34^a) |  |
| Cn1nc(S(=O)(=O)c2ccc(C(=O)C3C(=O)CCCC3=O)c(Cl)c2)n(C)c1=O [Example 13] | logP = 2.09^a) |  |
| Cn1c(S(=O)(=O)c2ccc(C(=O)C3C(=O)CCCC3=O)c(Cl)c2)n[nH]c1=O [Example 14] | logP = 1.88^a) |  |
| Cn1nc(Sc2cc(C(F)(F)F)ccc2C(=O)C2C(=O)CCCC2=O)n(C)c1=O [Example 15] |  | activity against weeds (degree of damage) [2]: strong activity; tolerance by crop plants [3]: tolerated well; activity against weeds (degree of damage) [4]: strong activity; tolerance by crop plants [5]: tolerated well |
| Cn1nc(SCc2c(Cl)ccc(C(=O)C3C(=O)CCCC3=O)c2Cl)n(C)c1=O [Example 20] | logP = 2.24^a) |  |
| Cn1c([S+]([O-])Cc2c(Cl)ccc(C(=O)C3C(=O)CCCC3=O)c2Cl)n[nH]c1=O (stereo not shown) [Example 22, 2-[2,4-dichloro-3-[(4-methyl-5-oxo-4,5-dihydro-1H-1,2,4-triazol-3-yl)-sulphinylmethyl]-benizoyl]-1,3-cyclohexanedione] |  | chromatographic logP ([1]; reversed-phase HPLC column (C 18); Table 1; label a): acidic range, 0.1% aqueous phosphoric acid/acetonitrile gradient, 43° C.): 1.6 |
| Cn1nc(S(=O)(=O)Cc2c(Cl)ccc(C(=O)C3C(=O)CCCC3=O)c2Cl)n(C)c1=O [Example 23] | logP = 2.09^a) |  |
| Cn1c(S(=O)(=O)Cc2c(Cl)ccc(C(=O)C3C(=O)CCCC3=O)c2Cl)n[nH]c1=O [Example 25] | logP = 1.87^a) |  |
| Cn1c([S+]([O-])Cc2c(Cl)ccc(C(=O)C3C(=O)CCCC3=O)c2Cl)n[nH]c1=O (stereo not shown) [Example 28] | logP = 1.61^a) |  |
| CCn1nc(Sc2ccc(C(=O)C3C(=O)CCCC3=O)c(Cl)c2)n(C)c1=O [Example 47] | logP = 2.34^a) |  |
| CCCn1nc(Sc2ccc(C(=O)C3C(=O)CCCC3=O)c(Cl)c2)n(C)c1=O [Example 49] | logP = 2.63^a) |  |
| C=CCn1nc(Sc2ccc(C(=O)C3C(=O)CCCC3=O)c(Cl)c2)n(C)c1=O [Example 51] | logP = 2.47^a) |  |
| C#CCn1nc(Sc2ccc(C(=O)C3C(=O)CCCC3=O)c(Cl)c2)n(C)c1=O [Example 53] | logP = 2.37^a) |  |
| Cn1c(Sc2ccc(C(=O)C3C(=O)CCCC3=O)c(Cl)c2)nn(CC2CC2)c1=O [Example 55] | logP = 2.72^a) |  |
| Cn1c(Sc2ccc(C(=O)C3C(=O)CCCC3=O)c(Cl)c2)nn(Cc2ccccc2)c1=O [Example 57] | logP = 3.04^a) |  |
| Cn1nc(S(=O)(=O)c2cc(C(F)(F)F)ccc2C(=O)C2C(=O)CCCC2=O)n(C)c1=O [Example 68] | logP = 1.85^a) |  |
| CCn1ncc(C(=O)c2ccc(C(F)(F)F)cc2S(=O)(=O)c2nn(C)c(=O)n2C)c1O [Example 69] | logP = 1.72^a) |  |
| Cn1nc([S+]([O-])Cc2cc(C(F)(F)F)ccc2C(=O)C2C(=O)CCCC2=O)n(C)c1=O (stereo not shown) [Example 70] | logP = 1.95^a) |  |
| CCn1ncc(C(=O)c2ccc(C(F)(F)F)cc2C[S+]([O-])c2nn(C)c(=O)n2C)c1O (stereo not shown) [Example 71] | logP = 1.77^a) |  |
| Cn1nc(SCc2cc(C(F)(F)F)ccc2C(=O)O)n(C)c1=O [II-9, 2-[(4,5-dihydro-1,4-dimethyl-5-oxo-1H-1,2,4-triazol-3-yl)-sulphanylmethyl]-4-trifluoromethyl-benzoic acid] |  | chromatographic logP ([1]; reversed-phase HPLC column (C 18), Table 2 (starting materials of formula II); label a): acidic range): 1.94 |

— US6727206B2, “Substituted aryl ketones” (Bayer Aktiengesellschaft, priority 1999, dated 2004)
